Measured values published in ChEMBL document CHEMBL1201862, “PubChem BioAssay data set” (2004).
The source made the active and inactive calls.

Legend:
[1] = system: Vero; experiment: Vero cell cytotoxicity, cytotoxicity control for flavivirus capping enzyme inhibitors (AID 588742); format: functional; conditions: Chlorocebus sabaeus
[2] = Luminescence Cell-Based Dose Retest to Confirm Inhibitors of Cancer Stem Cells. [Related pubchem assays (depositor defined):AID2717, AID2721]; format: functional; conditions: Homo sapiens
[3] = target: Large T antigen (Simian virus 40, UniProt P03070); format: functional, Betapolyomavirus macacae;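 further: Confirmatory-stage PubChem screen for compounds that inhibit SV40 T antigen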
Large T antigen, sequence (P03070 whole entry): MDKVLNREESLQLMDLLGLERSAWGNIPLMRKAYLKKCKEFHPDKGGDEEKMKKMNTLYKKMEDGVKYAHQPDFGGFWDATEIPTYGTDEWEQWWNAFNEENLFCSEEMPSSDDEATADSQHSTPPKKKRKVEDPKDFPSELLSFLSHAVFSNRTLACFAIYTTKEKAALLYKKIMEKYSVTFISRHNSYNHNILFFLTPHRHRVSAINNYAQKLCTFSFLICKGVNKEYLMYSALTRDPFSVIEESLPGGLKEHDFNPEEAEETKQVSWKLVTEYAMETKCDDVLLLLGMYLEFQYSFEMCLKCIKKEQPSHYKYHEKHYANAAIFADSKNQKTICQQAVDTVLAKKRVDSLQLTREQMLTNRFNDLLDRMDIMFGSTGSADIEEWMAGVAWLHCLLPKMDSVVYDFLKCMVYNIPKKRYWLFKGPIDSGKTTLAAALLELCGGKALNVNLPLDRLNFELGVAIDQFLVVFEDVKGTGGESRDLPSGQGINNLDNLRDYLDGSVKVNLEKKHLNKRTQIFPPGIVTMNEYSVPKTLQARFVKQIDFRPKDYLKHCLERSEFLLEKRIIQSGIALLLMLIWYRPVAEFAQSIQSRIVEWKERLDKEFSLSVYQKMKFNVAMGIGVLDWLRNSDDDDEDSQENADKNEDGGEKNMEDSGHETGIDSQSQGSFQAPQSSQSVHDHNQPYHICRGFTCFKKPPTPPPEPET

[4] = target: FAD-linked sulfhydryl oxidase ALR (Homo sapiens, UniProt P55789); experiment: inhibitors of human ALR sulfhydryl oxidase, dose response, biochemical, H2O2 detection, luminescence, cherry-pick (AID 493248)
FAD-linked sulfhydryl oxidase ALR, sequence (P55789 whole entry): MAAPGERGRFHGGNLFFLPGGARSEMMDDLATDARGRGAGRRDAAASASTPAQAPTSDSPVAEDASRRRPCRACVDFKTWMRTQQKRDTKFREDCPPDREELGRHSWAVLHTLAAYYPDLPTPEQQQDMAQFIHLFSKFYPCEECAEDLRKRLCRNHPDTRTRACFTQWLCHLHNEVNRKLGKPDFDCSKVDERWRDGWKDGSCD

[5] = target: Induced myeloid leukemia cell differentiation protein Mcl-1 (Homo sapiens, UniProt Q07820); format: functional
Induced myeloid leukemia cell differentiation protein Mcl-1, sequence (Q07820 whole entry): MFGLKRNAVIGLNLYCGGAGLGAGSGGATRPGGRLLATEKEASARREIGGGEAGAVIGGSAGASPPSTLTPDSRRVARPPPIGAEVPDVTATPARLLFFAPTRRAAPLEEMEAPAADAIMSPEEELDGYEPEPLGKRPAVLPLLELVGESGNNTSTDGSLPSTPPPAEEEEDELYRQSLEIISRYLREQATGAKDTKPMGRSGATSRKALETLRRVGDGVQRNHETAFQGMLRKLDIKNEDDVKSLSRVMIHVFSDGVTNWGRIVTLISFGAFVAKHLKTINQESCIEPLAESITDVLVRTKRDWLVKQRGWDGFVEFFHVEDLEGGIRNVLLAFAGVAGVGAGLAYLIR

[6] = target: G-protein coupled receptor 55 (Homo sapiens, UniProt Q9Y2T6); experiment: GPR55 antagonists blocking LPI-driven arrestin recruitment, primary screen, imaging, U2OS, beta-arrestin-GFP, LPI agonist (AID 2013); format: functional;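 further: antagonist potency measured as reduced agonist-driven arrestin aggregation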
G-protein coupled receptor 55, sequence (Q9Y2T6 whole entry): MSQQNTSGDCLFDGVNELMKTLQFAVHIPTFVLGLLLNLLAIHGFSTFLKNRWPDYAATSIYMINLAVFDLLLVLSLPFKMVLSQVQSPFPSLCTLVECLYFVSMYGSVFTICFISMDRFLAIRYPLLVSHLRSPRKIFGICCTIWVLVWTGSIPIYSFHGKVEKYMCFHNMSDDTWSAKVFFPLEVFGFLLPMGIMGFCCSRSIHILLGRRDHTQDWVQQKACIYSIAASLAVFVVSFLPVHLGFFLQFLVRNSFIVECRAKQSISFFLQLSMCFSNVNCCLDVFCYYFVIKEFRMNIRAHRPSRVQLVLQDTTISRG

[7] = target: Genome polyprotein (dengue virus type 2, UniProt P29990); experiment: Dengue-2 NS5 methyltransferase inhibitors, primary screen, biochemical, confirmation dose response (AID 588689); format: functional
Genome polyprotein, sequence (P29990 2492-3391 limits assumed): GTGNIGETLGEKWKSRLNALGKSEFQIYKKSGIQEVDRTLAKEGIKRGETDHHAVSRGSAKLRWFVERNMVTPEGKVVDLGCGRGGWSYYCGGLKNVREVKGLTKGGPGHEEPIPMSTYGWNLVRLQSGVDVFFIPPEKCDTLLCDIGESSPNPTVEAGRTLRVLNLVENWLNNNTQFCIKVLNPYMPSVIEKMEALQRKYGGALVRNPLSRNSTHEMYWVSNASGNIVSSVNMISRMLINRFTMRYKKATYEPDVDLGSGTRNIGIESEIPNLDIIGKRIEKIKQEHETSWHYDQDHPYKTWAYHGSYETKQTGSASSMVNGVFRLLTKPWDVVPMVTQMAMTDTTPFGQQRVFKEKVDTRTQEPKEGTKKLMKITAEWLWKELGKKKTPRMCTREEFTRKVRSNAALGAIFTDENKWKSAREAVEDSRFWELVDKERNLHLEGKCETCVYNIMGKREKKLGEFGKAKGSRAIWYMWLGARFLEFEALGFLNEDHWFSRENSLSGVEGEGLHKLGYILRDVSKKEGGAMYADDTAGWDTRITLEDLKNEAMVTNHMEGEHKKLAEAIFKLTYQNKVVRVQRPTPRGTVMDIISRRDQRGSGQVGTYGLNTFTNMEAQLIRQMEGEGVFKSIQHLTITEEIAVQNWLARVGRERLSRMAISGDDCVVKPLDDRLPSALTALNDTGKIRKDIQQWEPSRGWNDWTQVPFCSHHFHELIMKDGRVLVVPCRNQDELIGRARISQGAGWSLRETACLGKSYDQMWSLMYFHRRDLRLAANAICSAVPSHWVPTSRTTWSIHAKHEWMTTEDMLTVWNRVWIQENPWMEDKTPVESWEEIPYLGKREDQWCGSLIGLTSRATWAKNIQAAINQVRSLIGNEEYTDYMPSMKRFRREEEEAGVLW

[8] = target: T1, High affinity choline transporter 1 (Homo sapiens, UniProt Q9GZV3); experiment: CHT inhibitors, dose response, cell-based, 5-point CRC, membrane potential dye (AID 504840); format: functional
T1 sequence (Q9GZV3 whole entry): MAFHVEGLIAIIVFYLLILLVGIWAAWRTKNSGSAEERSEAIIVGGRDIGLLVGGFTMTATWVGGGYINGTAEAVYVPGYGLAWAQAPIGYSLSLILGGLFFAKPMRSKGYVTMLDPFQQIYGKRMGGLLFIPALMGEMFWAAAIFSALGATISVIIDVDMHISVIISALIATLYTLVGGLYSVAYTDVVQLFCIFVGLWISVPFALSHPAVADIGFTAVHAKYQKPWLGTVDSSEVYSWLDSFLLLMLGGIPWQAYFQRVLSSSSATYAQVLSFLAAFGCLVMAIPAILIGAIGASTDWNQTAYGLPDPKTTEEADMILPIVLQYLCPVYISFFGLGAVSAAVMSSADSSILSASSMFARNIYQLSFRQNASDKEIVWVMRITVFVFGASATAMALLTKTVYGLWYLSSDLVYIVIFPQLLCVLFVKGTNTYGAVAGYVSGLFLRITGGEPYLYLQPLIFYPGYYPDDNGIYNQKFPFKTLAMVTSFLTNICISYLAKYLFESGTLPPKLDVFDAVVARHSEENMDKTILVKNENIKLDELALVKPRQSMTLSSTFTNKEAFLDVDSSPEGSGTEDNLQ

[9] = target: T2, Type-1 angiotensin II receptor (Homo sapiens, UniProt P30556); experiment: AT1 receptor agonists, dose response, selectivity assay for APJ receptor agonist project, cell-based, uHTS hits (AID 488865); format: functional;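 further: beta-arrestin recruitment to AT1 measured by enzyme fragment complementation luminescence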
T2 sequence (P30556 whole entry): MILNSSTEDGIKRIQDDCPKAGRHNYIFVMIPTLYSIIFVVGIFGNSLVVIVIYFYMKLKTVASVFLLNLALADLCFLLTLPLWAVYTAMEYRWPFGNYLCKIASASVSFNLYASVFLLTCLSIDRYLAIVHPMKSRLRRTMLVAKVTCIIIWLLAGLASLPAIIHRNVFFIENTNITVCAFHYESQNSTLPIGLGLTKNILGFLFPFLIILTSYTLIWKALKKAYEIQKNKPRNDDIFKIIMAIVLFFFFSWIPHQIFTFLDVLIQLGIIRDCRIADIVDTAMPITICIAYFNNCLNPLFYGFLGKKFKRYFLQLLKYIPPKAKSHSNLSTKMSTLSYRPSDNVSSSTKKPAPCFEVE

[10] = target: T3, Ubiquitin-conjugating enzyme E2 N (Homo sapiens, UniProt P61088); format: functional
T3 sequence (P61088 whole entry): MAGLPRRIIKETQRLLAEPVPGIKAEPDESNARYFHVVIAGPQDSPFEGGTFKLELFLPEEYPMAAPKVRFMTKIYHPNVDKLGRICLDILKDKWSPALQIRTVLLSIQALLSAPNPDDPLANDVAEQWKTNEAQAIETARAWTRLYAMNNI

[11] = target: Cytochrome P450 2D6 (Homo sapiens, UniProt P10635);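 further: CYP2D6 member of a cytochrome P450 panel assay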
Cytochrome P450 2D6, sequence (P10635 whole entry): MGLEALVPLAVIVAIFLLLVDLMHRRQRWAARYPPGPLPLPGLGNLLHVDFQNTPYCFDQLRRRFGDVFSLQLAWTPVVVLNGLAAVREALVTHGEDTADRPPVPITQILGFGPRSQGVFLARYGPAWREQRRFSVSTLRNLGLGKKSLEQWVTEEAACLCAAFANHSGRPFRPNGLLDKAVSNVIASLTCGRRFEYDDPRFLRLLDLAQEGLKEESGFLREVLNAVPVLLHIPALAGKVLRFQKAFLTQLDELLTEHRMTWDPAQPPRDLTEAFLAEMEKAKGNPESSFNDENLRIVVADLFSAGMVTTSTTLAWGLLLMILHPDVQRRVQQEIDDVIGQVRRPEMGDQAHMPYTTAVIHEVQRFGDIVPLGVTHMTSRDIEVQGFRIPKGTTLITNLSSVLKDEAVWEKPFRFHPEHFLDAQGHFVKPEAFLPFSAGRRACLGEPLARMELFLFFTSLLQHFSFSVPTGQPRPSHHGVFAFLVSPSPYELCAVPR

[12] = target: T3, Ubiquitin-conjugating enzyme E2 N; format: functional; remark: listed apart in the source
[13] = HEp-2 cell cytotoxicity, dose response, cytotoxicity control for RSV inhibitor project, HTS (AID 2410); format: functional; conditions: human respiratory syncytial virus
[14] = target: Bcl-2-related protein A1 (Mus musculus, UniProt Q07440); format: functional;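 further: confirmatory dose–response counterscreen on Bfl-1, used to check hits from a UBC13 polyubiquitin inhibitor campaign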
Bcl-2-related protein A1, sequence (Q07440 whole entry, the tested form may be a part): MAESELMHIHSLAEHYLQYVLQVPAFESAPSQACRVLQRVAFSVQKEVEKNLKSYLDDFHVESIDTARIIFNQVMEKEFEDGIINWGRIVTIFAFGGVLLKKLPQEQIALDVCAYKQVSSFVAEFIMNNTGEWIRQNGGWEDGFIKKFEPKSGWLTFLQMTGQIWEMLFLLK

[15] = target: T4, RNA-binding protein pos-1 (Caenorhabditis elegans, UniProt G5EF15); experiment: inhibitors of POS-1/mex-3 RNA binding, dose response, biochemical, fluorescence polarization (AID 1964);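 further: purified POS-1 fused to maltose binding protein made in E. coli; potency of compounds blocking POS-1 binding to fluorescent RNA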
T4 sequence (G5EF15 whole entry): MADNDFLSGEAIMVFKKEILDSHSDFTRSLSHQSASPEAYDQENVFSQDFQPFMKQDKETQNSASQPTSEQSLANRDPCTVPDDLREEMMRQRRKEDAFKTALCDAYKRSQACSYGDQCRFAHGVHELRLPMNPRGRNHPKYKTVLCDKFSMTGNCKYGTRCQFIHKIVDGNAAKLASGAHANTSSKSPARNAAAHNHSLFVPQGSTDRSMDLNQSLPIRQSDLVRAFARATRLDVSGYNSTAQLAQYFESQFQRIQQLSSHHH

[16] = target: NS3 (Hepatitis C virus, UniProt A3EZJ3); experiment: PubChem AID 2173; parameters: species or system Hepacivirus hominis
NS3, sequence (A3EZJ3 whole entry): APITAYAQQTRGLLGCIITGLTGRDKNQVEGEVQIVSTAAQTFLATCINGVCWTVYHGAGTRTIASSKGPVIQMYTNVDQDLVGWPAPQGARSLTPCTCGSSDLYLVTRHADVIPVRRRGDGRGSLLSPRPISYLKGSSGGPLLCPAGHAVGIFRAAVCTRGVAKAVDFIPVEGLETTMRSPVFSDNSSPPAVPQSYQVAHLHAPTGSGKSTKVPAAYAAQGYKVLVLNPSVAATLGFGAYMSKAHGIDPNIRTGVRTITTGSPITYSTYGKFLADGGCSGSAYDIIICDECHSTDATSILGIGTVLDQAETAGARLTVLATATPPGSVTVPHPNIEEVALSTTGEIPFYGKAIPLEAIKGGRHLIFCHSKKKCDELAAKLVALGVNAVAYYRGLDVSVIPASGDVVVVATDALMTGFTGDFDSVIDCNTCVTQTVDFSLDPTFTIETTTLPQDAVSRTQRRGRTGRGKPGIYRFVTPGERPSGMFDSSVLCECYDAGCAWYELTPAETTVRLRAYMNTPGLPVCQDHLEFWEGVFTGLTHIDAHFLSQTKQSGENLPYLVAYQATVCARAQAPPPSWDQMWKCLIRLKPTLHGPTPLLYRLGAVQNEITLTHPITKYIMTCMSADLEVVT

[17] = target: Troponin, cardiac muscle (Homo sapiens, UniProt P19429+P45379+P63316); experiment: Fluorescence-based biochemical high throughput dose response assay for activators of the calcium sensitivity of cardiac Regulated Thin Filaments (RTF). [Related pubchem assays (depositor defined):AID493008, AID493018, AID504382, AID504383]; format: protein-complex assay
[18] = target: T5, Endoribonuclease toxin MazF (Escherichia coli K-12, UniProt P0AE70); experiment: MazF toxin RNase activators, dose response, biochemical, fluorescence, single-stranded RNA substrate, uHTS hits (AID 588481); format: functional
T5 sequence (P0AE70 whole entry): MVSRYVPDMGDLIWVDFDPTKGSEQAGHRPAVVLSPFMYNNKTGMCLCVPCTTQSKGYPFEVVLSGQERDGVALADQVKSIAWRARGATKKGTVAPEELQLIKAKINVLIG

[19] = target: T6, Zinc finger protein mex-5 (Caenorhabditis elegans, UniProt Q9XUB2); experiment: MEX-5/TCR-2 RNA interaction inhibitors, dose response, biochemical, C. elegans, fluorescence polarization (AID 1960)
T6 sequence (Q9XUB2 whole entry): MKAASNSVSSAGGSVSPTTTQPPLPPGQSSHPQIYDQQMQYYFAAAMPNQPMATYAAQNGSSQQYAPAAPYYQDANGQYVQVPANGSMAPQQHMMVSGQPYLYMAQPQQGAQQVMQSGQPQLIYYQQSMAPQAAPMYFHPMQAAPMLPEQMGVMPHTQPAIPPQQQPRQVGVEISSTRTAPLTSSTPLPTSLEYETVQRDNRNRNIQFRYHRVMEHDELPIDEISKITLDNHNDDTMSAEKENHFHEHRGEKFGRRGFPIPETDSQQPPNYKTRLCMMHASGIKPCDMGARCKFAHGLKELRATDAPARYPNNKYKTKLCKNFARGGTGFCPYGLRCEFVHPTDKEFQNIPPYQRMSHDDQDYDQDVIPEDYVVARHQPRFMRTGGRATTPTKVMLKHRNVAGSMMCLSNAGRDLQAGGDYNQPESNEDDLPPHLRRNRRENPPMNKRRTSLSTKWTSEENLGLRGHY

[20] = target: T5, Endoribonuclease toxin MazF; experiment: fluorescent RNA oligo signal without MazF, dose response, counter-screen for MazEF activator project, biochemical, fluorescence, single-stranded RNase substrate (AID 588502); format: functional

With `Cc1ccc(N2NC(=O)/C(=C\c3cc4c(cc3[N+](=O)[O-])OCO4)C2=O)cc1C` the CC50 [1] was > 40 µM (active), the AC50 [2] was 3.65 µM (active) and the IC50 [3] was 23 µM (active). For the same compound, the AC50 [4] was 0.321 µM (active), the IC50 [5] was 4.66 µM (active) and the IC50 [6] was 3.3 µM (active). For the same compound, the IC50 [7] was 27 µM (active) and the IC50 [8] was 3.98 µM (active).
In the case of `CN(C)CCCN(C(=O)c1ccc(S(=O)(=O)N2CCc3ccccc3C2)cc1)c1nc2c(F)cccc2s1`, the EC50 [9] is reported as > 100 µM (inactive).
For `O=C(CCCn1c(=S)[nH]c2ccc(Br)cc2c1=O)N1CCN(c2ccccn2)CC1`, the IC50 [10] was 19.6 µM (active), the AC50 [11] was 15.8 µM (inconclusive) and the IC50 [12] was > 20 µM (inactive). For the same compound, the CC50 [13] was 23.6 µM (active) and the IC50 [14] was > 20 µM (inactive).
For `C#CCN(CC=C)C(=O)c1ccc2nc(C3CCCCC3)oc2c1`, the IC50 [6] was 4.55 µM (active).
With `CSc1ccc(C2C(C(=O)c3ccco3)=C(O)C(=O)N2c2nnc(SC)s2)cc1` (stereo unspecified) the EC50 [15] was 6.79 µM (active), the IC50 [16] was 4.87 µM (active) and the EC50 [17] was 0.279 µM (active). The EC50 [18] was > 99 µM (inactive), the EC50 [19] was 16.4 µM (active) and the EC50 [20] was > 99 µM (inactive).
